Test results from patent US20230203022A1, “HETEROCYCLE AND GLUTARIMIDE SKELETON-BASED COMPOUND AND APPLICATIONS THEREOF” (Shanghaitech University, priority 2020, published 2023).

Experiments:
Type in all cases: cell-based
[1] = system: Multiple myeloma cell line MM.1S; experiment: Cell viability / proliferation inhibition IC50 in MM.1S cells, 72 h; conditions: Homo sapiens, MM1.S, 72 h treatment
Excerpt: (§1) The tested cell line used were: Multiple myeloma cell line MM.1S, Mino (human mantle cell lymphoma cell), SR (anaplastic large cell lymphoma cell), PBMC (peripheral blood mononuclear cell), which were purchased from ATCC (American type Culture Collection). The medium was RPMI1640 supplemented with 10% FBS (fetal calf serum) and 1% Penicillin-Streptomycin. The cells used were identified as correct cells by STR cells, and were negative for mycoplasma through routine inspections.
(§2) IC50 values of the compounds of the present disclosure (including examples 1-11 compounds) were measured using Cell Titer Blue, Cell Titer GLO, or WST reagent from Promega Company. Assay details are as follows: Cells were seeded in 100 µL RPMI1640 complete medium containing serum at a density of 15,000 cells/well. After 24 h, the inoculated cells were treated with diluted commercial inhibitor and the compounds of the present disclosure to be tested after serial dilution. After the cells were treated with the compounds of the present disclosure to be tested (including examples 1-11 compounds) for 72 h, cell viability was determined after adding the cell viability detection kit listed above according to the reagent operating instructions. The negative control was DMSO, and the positive control was a commercial inhibitor, both of which were used to treat the cells through the same method as that of the compounds of the present disclosure. The growth inhibition of the compounds of the present disclosure on cells was plotted by Prism Graphpad software, and the IC50 values of the compounds of the present disclosure were calculated therefrom.
(§3) We tested the activities of the compounds of the present invention (including the compounds in Table 1 and Examples 1-11 compounds) in MM.1S cell, mantle cell lymphoma Mino cells, and anaplastic large cell lymphoma SR cells through a dose-dependent manner. These cells overexpressed IKZF⅓ and was not sensitive to existing immunomodulatory drugs. The cells were treated with the compounds of the present invention at 10 different successively decreasing concentrations (starting at the highest concentration of 10 µM; 5-fold serial dilutions) for 72 h, and then the cell viability determination was performed in accordance with CCK-8 reagent operating instructions. The experiment was repeated more than three times.

[2] = system: Mino (human mantle cell lymphoma cell); experiment: Cell viability / proliferation inhibition IC50 in Mino lymphoma cells, 72 h, WST; conditions: Mino cell line, WST reagent
Excerpt: as §1, §2, §3

[3] = system: TNF-α; experiment: TNF-α inhibition in LPS-stimulated PBMC cells (ELISA); conditions: LPS 1 µg/ml, 18-20 h
Excerpt: as §1
PBMC cells were cultured at 37° C. in 5% CO2 atmosphere, and then seeded in 96-well plates at 1×10^6 cells/well. […] Cells were pretreated with compounds and vehicle control (DMSO) for 1 h, then stimulated with lipopolysaccharide (LPS; 1 µg/ml), and continually cultured for 18-20 h. Then, the supernatant was collected, and tested for TNF-α level by ELISA kit. IC50 was then calculated by Graphpad Prism 7.0.

[4] = system: SR (anaplastic large cell lymphoma cell); experiment: Cell viability / proliferation inhibition IC50 in SR lymphoma cells, 72 h, WST; conditions: SR cell line, WST reagent
Excerpt: as §1, §2
We tested the activities of the compounds of the present invention (including the compounds in Table 1 and Examples 1-11 compounds) in MM.1S cell, mantle cell lymphoma Mino cells, and anaplastic large cell lymphoma SR cells through a dose-dependent manner. These cells overexpressed IKZF⅓ and was not sensitive to existing immunomodulatory drugs. […]

[5] = molecular target: T1, IKZF3 (Homo sapiens, UniProt Q96SW2+Q9UKT9); experiment: Western blotting assay of IKZF3 degradation in MM.1S cells; conditions: 16 h, Western blot, FIG. 1
T1 construct: degradation of IKZF1 and IKZF3 proteins caused by the compounds of the present invention in multiple myeloma cells MM.1S; endogenous in cells; host or cells: MM.1S (ATCC)
Protocol: Most antibodies were purchased from Cell Signaling Technology, including IKZF1 (#9034S), IKZF3(#15103S). GAPDH antibody was purchased from Abcam Company.
Tumor cells were plated in a 24-well plate at a cell seeding density of 3×10^5 cells/mL, with 1 mL culture media per well. After 24 h, the cells were treated with different concentrations of the compounds of the present disclosure. After 16 hours, the cells were collected, and washed with PBS. The supernatant was discarded, and the cells were placed on ice, and treated with RIPA protein lysate containing Halt protease and phosphatase inhibitor. The lysate was centrifuged at 10000 RPM at 4° C. for 10 minutes, and the supernatant was collected. An equal amount of proteins were loaded in 4X SDS sample solution, denatured at 95° C. for 5 minutes, and then freezed to -20° C. or directly subjected to protein electrophoresis (4-15% gradient gel, Bio-rad). […]
DC50 value (the drug concentration required for degrading proteins by 50%, abbreviated as DC50) reads method: comparing the gray values of the Western blotting bands for the drug treatment with the gray values of the Western blotting band for the DMSO control, and reading the drug concentration range corresponding to the gray value of the Western blotting bands for the drug treatment which is equal to half of the gray value of the Western blotting band for the DMSO control. […]

T1 sequence (Q9UKT9 whole entry): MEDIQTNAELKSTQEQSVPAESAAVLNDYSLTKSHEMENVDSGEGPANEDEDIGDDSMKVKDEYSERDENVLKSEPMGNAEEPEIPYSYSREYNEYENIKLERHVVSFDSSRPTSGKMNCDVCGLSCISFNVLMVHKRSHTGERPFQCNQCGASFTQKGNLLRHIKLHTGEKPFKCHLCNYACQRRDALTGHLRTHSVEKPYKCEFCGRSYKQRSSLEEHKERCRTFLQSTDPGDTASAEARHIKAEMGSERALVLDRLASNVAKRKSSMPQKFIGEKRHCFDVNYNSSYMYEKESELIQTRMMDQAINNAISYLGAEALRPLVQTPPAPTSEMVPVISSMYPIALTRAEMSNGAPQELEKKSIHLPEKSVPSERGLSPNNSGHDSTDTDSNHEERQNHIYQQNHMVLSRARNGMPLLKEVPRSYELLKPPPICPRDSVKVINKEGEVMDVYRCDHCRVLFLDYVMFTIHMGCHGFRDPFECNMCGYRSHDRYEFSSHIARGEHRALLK
T1 sequence (Q96SW2 whole entry): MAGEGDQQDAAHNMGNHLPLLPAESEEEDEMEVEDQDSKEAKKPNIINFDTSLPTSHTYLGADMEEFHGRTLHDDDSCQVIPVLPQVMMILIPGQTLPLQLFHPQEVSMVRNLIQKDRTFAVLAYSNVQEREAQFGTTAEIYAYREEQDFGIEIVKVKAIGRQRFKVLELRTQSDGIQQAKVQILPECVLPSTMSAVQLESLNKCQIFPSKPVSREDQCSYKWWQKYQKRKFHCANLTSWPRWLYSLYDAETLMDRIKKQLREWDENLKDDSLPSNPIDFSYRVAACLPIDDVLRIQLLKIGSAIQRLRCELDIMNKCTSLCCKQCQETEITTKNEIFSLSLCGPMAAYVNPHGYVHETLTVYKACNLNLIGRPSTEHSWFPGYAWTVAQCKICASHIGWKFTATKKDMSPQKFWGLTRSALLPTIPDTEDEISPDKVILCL
T1 sequence (Q16531 whole entry partner): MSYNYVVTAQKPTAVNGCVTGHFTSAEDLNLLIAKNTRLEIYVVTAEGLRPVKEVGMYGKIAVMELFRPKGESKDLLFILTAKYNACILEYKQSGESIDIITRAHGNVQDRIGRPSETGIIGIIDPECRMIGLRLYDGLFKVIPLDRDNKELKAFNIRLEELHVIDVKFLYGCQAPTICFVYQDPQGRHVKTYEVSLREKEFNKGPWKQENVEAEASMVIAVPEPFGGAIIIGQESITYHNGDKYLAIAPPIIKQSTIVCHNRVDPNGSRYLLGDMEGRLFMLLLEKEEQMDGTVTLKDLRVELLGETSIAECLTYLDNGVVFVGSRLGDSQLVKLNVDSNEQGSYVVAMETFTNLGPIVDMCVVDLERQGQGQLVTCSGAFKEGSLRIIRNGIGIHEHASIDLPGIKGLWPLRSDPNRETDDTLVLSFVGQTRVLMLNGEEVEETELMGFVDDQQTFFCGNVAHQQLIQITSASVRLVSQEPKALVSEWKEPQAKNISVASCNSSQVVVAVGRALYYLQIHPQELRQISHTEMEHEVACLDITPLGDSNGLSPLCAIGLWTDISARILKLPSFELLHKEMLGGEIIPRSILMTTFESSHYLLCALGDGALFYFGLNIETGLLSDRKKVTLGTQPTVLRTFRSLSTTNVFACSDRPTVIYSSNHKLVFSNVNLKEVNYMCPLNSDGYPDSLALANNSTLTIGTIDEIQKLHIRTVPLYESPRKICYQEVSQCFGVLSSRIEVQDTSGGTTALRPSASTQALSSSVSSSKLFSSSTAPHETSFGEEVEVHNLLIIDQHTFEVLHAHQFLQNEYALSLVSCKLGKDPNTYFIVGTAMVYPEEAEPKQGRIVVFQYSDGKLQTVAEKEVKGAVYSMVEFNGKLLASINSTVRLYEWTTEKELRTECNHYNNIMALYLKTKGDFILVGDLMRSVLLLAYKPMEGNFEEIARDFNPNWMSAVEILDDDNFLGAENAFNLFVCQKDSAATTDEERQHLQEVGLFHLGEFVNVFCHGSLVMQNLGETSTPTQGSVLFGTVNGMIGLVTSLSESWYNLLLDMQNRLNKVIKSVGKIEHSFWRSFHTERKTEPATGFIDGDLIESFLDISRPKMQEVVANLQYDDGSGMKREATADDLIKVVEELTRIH

| IC50 [1] | IC50 [3] | Structure (SMILES) | also measured |
| --- | --- | --- | --- |
| 0.06 ± 0.04 nM |  | O=C1CCC(N2Cc3c(SCc4ccc5cc(CN[C@]67CC8CC(C[C@@H](C8)C6)C7)ccc5n4)cccc3C2=O)C(=O)N1 (some centres unmarked) [SIAIS338048, 3-(4-(((6-((adamantan-1-ylamino)methyl)quinolin-2-yl)methyl)thio)-1-oxoisoindolin-2-yl)piperidine-2,6-dione] |  |
| 0.16 ± 0.02 nM |  | O=C1CCC(N2Cc3c(SCc4nc(CN[C@H]5[C@H]6CC7CC(C6)C[C@@H]5C7)cs4)cccc3C2=O)C(=O)N1 (some centres unmarked) [SIAIS313185, 3-(4-(((4-((adamantan-2-ylamino)methyl)thiazol-2-yl)methyl)thio)-1-oxoisoindolin-2-yl)piperidine-2,6-dione] |  |
|  |  | Nc1cccc2c1C(=O)N(C1CCC(=O)NC1=O)C2=O (centres unmarked) [Pomalidomide, reference compound] | IC50 ([2]; Homo sapiens, MINO): 48 nM |
| 4.46 ± 0.18 nM | < 5 nM | O=C1CCC(N2C(=O)c3cccc(NCc4ccc(CNC56CC7CC(CC(C7)C5)C6)cn4)c3C2=O)C(=O)N1 (centres unmarked) [SIAIS355067, 4-(((5-((adamantan-1-ylamino)methyl)pyridin-2-yl)methyl)amino)-2-(2,6-dioxopiperidin-3-yl)isoindoline-1,3-dione] |  |
|  | 10 to 100 nM | Nc1cccc2c1CN(C1CCC(=O)NC1=O)C2=O (centres unmarked) [Lenalidomide, reference compound] |  |
| 0.13 ± 0.03 nM | < 1 nM | O=C1CCC(N2Cc3c(SCc4csc(CNC56CC7CC(CC(C7)C5)C6)n4)cccc3C2=O)C(=O)N1 (centres unmarked) [SIAIS313160, 3-(4-(((2-((adamantan-1-ylamino)methyl)thiazol-4-yl)methyl)thio)-1-oxoisoindolin-2-yl)piperidine-2,6-dione] |  |
| 0.003 nM | < 1 nM | O=C1CCC(N2Cc3c(SCc4cc5cc(CNC67CC8CC(CC(C8)C6)C7)ccc5o4)cccc3C2=O)C(=O)N1 (centres unmarked) [SIAIS287116, 3-(4-(((5-((adamantan-1-ylamino)methyl)benzofuran-2-yl)methyl)thio)-1-oxoisoindolin-2-yl)piperidine-2,6-dione] | IC50 ([4]; Homo sapiens, SR): ~0.5 nM; IC50 [4]: 0.454 nM; IC50 ([2]; Homo sapiens, MINO): ~0.39 nM; IC50 [2]: 0.387 nM; concentration at which IKZF3 protein is significantly degraded [5]: less than 0.01 nM |
|  | < 5 nM | O=C1CCC(N2Cc3c(SCCn4cc(CN[C@]56CC7CC(C[C@@H](C7)C5)C6)nn4)cccc3C2=O)C(=O)N1 (some centres unmarked) [SIAIS287097, 3-(4-((2-(4-((adamantan-1-ylamino)methyl)-1H-1,2,3-triazol-1-yl)ethyl)thio)-1-oxoisoindolin-2-yl)piperidine-2,6-dione] |  |
| 0.09 ± 0.02 nM |  | O=C1CCC(N2Cc3c(SCc4ccc(CNC56CC7CC(CC(C7)C5)C6)o4)cccc3C2=O)C(=O)N1 (centres unmarked) [SIAIS313118, 3-(4-(((5-((adamantan-1-ylamino)methyl)furan-2-yl)methyl)thio)-1-oxoisoindolin-2-yl)piperidine-2,6-dione] |  |
| 0.02 nM | < 1 nM | O=C1CCC(N2Cc3c(SCc4cc5cc(C(=O)NC67CC8CC(CC(C8)C6)C7)ccc5s4)cccc3C2=O)C(=O)N1 (centres unmarked) [SIAIS338091, N-(adamantan-1-yl)-2-(((2-(2,6-dioxopiperidin-3-yl)-1-oxoisoindolin-4-yl)thio)methyl)benzo[b]thiophene-5-carboxamide] |  |
| 0.181 nM |  | O=C1CCC(N2Cc3c(SCc4nc(CNC56CC7CC(CC(C7)C5)C6)cs4)cccc3C2=O)C(=O)N1 (centres unmarked) [SIAIS287129, 3-(4-(((4-((adamantan-1-ylamino)methyl)thiazol-2-yl)methyl)thio)-1-oxoisoindolin-2-yl)piperidine-2,6-dione] | IC50 ([4]; Homo sapiens, SR): 4.02 nM; IC50 ([2]; Homo sapiens, MINO): 2.59 nM |
| 0.51 ± 0.25 nM |  | O=C1CCC(N2Cc3c(SCc4csc(C(=O)NC56CC7CC(CC5C7)C6)n4)cccc3C2=O)C(=O)N1 (centres unmarked) [SIAIS355073, 4-(((2-(2,6-dioxopiperidin-3-yl)-1-oxoisoindolin-4-yl)thio)methyl)-N-(octahydro-2,5-methanopentalen-6a-yl)thiazole-2-carboxamide] |  |
